# Measurements from ChEMBL document CHEMBL6092174, “Synthesis and anti-influenza virus activity of substituted dibenzoxepine-based baloxavir derivatives” (Eur J Med Chem, 2024).
# The source made the active and inactive calls. The calls are words filed in the database; no cut-off is given here.
# How the values were obtained:
# [1] = Metabolic stability in human liver microsomes assessed as half life at 1 uM in presence of NADPH by LC-MS/MS analysis; assay type: ADME, Microsome; conditions: time 60 min
# [2] = Metabolic stability in mouse liver microsomes assessed as half life at 1 uM in presence of NADPH by LC-MS/MS analysis; assay type: ADME, Microsome; conditions: time 60 min
# [3] = Metabolic stability in human liver microsomes assessed as intrinsic clearance at 1 uM incubated for 60 mins in presence of NADPH by LC-MS/MS analysis; assay type: ADME, Microsome; conditions: 1 h
# [4] = Metabolic stability in mouse liver microsomes assessed as intrinsic clearance at 1 uM incubated for 60 mins in presence of NADPH by LC-MS/MS analysis; assay type: ADME, Microsome; conditions: 1 h
# Influenza A virus [5] = assay: Antiviral activity against Influenza A virus H3N2 (A/Aichi/2/68) infected in dog MDCK cells assessed as reduction in cytopathic effect incubated for 2 days; assay type: functional, organism-based; conditions: 48 h
# [6] = Cytotoxicity against dog MDCK cells assessed as reduction in cell viability incubated for 2 days by CCK-8 assay; assay type: toxicity, cell-based, Canis lupus familiaris; conditions: time 2 day
# [7] = Selectivity index, ratio of CC50 for cytotoxicty against MDCK cells to EC50 for antiviral activity against Influenza A virus H3N2 (A/Aichi/2/68) infected in dog MDCK cells; assay type: toxicity, cell-based; conditions: read-out: Selectivity Index
# Influenza A virus [8] = assay: Potency index, ratio of baloxavir EC50 to test compound EC50 for antiviral activity against Influenza A virus H3N2 (A/Aichi/2/68) infected in dog MDCK cells assessed as reduction in cytopathic effect incubated for 2 days; assay type: functional; conditions: time 2 day
# Influenza A virus [9] = assay: Antiviral activity against Influenza A virus H1N1(A/Puetro Rico/8/34) infected in dog MDCK cells assessed as reduction in cytopathic effect incubated for 2 days; assay type: functional, organism-based; conditions: 48 h
# Influenza A virus [10] = assay: Antiviral activity against Influenza A virus H1N1(A/FM/1/47) infected in dog MDCK cells assessed as reduction in cytopathic effect incubated for 2 days; assay type: functional, organism-based; conditions: 48 h
# Influenza B virus = assay: Antiviral activity against Influenza B virus IBV/Lee/40 infected in dog MDCK cells assessed as reduction in cytopathic effect incubated for 2 days by TCID50 method; assay type: functional, organism-based; conditions: IBV/Lee/40, MDCK, 48 h
# [11] = Half life in CD-1 mouse at 15 mg/kg, po measured upto 24 hrs by LC-MS/MS analysis; assay type: ADME, organism-based; conditions: in vivo
# [12] = Half life in CD-1 mouse at 1 mg/kg, iv measured upto 24 hrs by LC-MS/MS analysis; assay type: ADME, organism-based; conditions: in vivo
# [13] = Tmax in CD-1 mouse at 15 mg/kg, po measured upto 24 hrs by LC-MS/MS analysis; assay type: ADME, organism-based; conditions: in vivo
# [14] = Tmax in CD-1 mouse at 1 mg/kg, iv measured upto 24 hrs by LC-MS/MS analysis; assay type: ADME, organism-based; conditions: in vivo
# [15] = Cmax in CD-1 mouse at 15 mg/kg, po measured upto 24 hrs by LC-MS/MS analysis; assay type: ADME, organism-based; conditions: in vivo
# [16] = Cmax in CD-1 mouse at 1 mg/kg, iv measured upto 24 hrs by LC-MS/MS analysis; assay type: ADME, organism-based; conditions: in vivo
# [17] = AUC (0 to infinity) in CD-1 mouse at 15 mg/kg, po measured upto 24 hrs by LC-MS/MS analysis; assay type: ADME, organism-based; conditions: in vivo
# [18] = AUC (0 to infinity) in CD-1 mouse at 1 mg/kg, iv measured upto 24 hrs by LC-MS/MS analysis; assay type: ADME, organism-based; conditions: in vivo
# [19] = MRT (0 to infinity) in CD-1 mouse at 15 mg/kg, po measured upto 24 hrs by LC-MS/MS analysis; assay type: ADME, organism-based; conditions: in vivo
# [20] = MRT (0 to infinity) in CD-1 mouse at 1 mg/kg, iv measured upto 24 hrs by LC-MS/MS analysis; assay type: ADME, organism-based; conditions: in vivo
# [21] = Oral bioavailability in CD-1 mouse at 15 mg/kg measured upto 24 hrs by LC-MS/MS analysis; assay type: ADME, organism-based; conditions: in vivo
# Influenza A virus [22] = assay: Antiviral activity against Influenza A virus H1N1 infected in dog MDCK cells assessed as reduction in polymerase acidic protein expression at 10 to 20 nM by Western blot analysis; assay type: functional, organism-based; conditions: dose 10-20 nM
# Influenza A virus [23] = assay: Antiviral activity against Influenza A virus H1N1 infected in dog MDCK cells assessed as disruption of nuclear protein expression at 10 to 20 nM by Western blot analysis; assay type: functional, organism-based; conditions: dose 10-20 nM
# HEK293T [24] = assay: Inhibition of Influenza A virus RdRp transfected in HEK293T co-expressing PB1/PB2/PA/NP/firefly luciferase/Renilla luciferase incubated for 24 hrs relative to control; assay type: cell-based; conditions: dose or concentration not given here
# HEK293T [25] = assay: Inhibition of Influenza A virus RdRp transfected in HEK293T co-expressing PB1/PB2/PA/NP/firefly luciferase/Renilla luciferase at 1 nM incubated for 24 hrs relative to control; assay type: cell-based
structure (smiles),measurement,setting,value
O=C(O)Cc1ccccc1Nc1c(Cl)cccc1Cl [DICLOFENAC],half-life at 1 µM,[1],0.0938 h
same,half-life at 1 µM,[2],0.672 h
same,CLint,[3],246 µL/min/mg
same,CLint,[4],34.4 µL/min/mg
O=C1c2c(O)c(=O)ccn2N([C@@H]2c3ccccc3COc3ccccc32)[C@@H]2COCCN12,EC50,Influenza A virus [5],1.75 nM
same,CC50 at 48 h,[6],> 50000 nM
same,selectivity ratio,[7],> 28600
O=C1c2c(O)c(=O)ccn2N([C@@H]2c3ccccc3OCc3c(Cl)cccc32)[C@@H]2COCCN12,half-life at 1 µM,[1],2.57 h
same,EC50,Influenza A virus [5],0.78 nM
same,CC50 at 48 h,[6],24600 nM
same,selectivity ratio,[7],31600
same,Ratio,Influenza A virus [8],>5
same,EC50,Influenza A virus [9],14.4 nM
same,EC50,Influenza A virus [10],6.1 nM
same,EC50,Influenza B virus,2.32 nM
same,half-life at 1 µM,[2],2.27 h
same,CLint,[3],9 µL/min/mg
same,CLint,[4],10.2 µL/min/mg
same,half-life,[11],4.45 h
same,half-life,[12],1.99 h
same,Tmax,[13],2.67 h
same,Tmax,[14],4.8 min
same,Cmax,[15],222 ng/mL
same,Cmax,[16],258 ng/mL
same,AUC(0-inf),[17],1680 ng·h/mL
same,AUC(0-inf),[18],355 ng·h/mL
same,MRT inf,[19],6.25 h
same,MRT inf,[20],2.57 h
same,bioavailability,[21],31.5%
same,Activity,Influenza A virus [22],Active
same,Activity,Influenza A virus [23],Active
same,inhibition,HEK293T [24],72%
O=C1c2c(O)c(=O)ccn2N([C@H]2c3ccccc3COc3ccccc32)[C@@H]2COCCN12,EC50,Influenza A virus [5],1.06 nM
same,CC50 at 48 h,[6],> 50000 nM
same,selectivity ratio,[7],> 47200
O=C1c2c(O)c(=O)ccn2N([C@H]2c3ccc(F)cc3COc3ccccc32)[C@@H]2COCCN12,half-life at 1 µM,[1],11.6 h
same,EC50,Influenza A virus [5],0.78 nM
same,CC50 at 48 h,[6],> 50000 nM
same,selectivity ratio,[7],> 64100
same,Ratio,Influenza A virus [8],>5
same,EC50,Influenza A virus [9],3.32 nM
same,EC50,Influenza A virus [10],1.65 nM
same,EC50,Influenza B virus,2.12 nM
same,half-life at 1 µM,[2],2.45 h
same,CLint,[3],2 µL/min/mg
same,CLint,[4],9.4 µL/min/mg
same,half-life,[11],2.83 h
same,half-life,[12],2.6 h
same,Tmax,[13],1.33 h
same,Tmax,[14],4.8 min
same,Cmax,[15],548 ng/mL
same,Cmax,[16],211 ng/mL
same,AUC(0-inf),[17],2790 ng·h/mL
same,AUC(0-inf),[18],343 ng·h/mL
same,MRT inf,[19],4 h
same,MRT inf,[20],2.91 h
same,bioavailability,[21],54.3%
same,Activity,Influenza A virus [22],Active
same,Activity,Influenza A virus [23],Active
same,inhibition,HEK293T [24],82.6%
O=C1c2c(O)c(=O)ccn2N([C@H]2c3ccccc3OCc3c(Cl)cccc32)[C@@H]2COCCN12,EC50,Influenza A virus [5],0.67 nM
same,CC50 at 48 h,[6],15600 nM
same,selectivity ratio,[7],23200
O=C1c2c(O)c(=O)ccn2N([C@@H]2c3ccccc3COc3cc(F)ccc32)[C@@H]2COCCN12,EC50,Influenza A virus [5],3.91 nM
same,CC50 at 48 h,[6],> 50000 nM
same,selectivity ratio,[7],> 12800
O=C1c2c(O)c(=O)ccn2N([C@H]2c3ccccc3COc3cc(C(F)(F)F)ccc32)[C@@H]2COCCN12,EC50,Influenza A virus [5],24.9 nM
same,CC50 at 48 h,[6],> 50000 nM
same,selectivity ratio,[7],> 2010
O=C1c2c(O)c(=O)ccn2N([C@H]2c3ccccc3OCc3c2ccc(F)c3F)[C@@H]2COCCN12,EC50,Influenza A virus [5],2.08 nM
same,CC50 at 48 h,[6],33000 nM
same,selectivity ratio,[7],15900
N#Cc1ccc2c(c1)COc1ccccc1[C@H]2N1[C@@H]2COCCN2C(=O)c2c(O)c(=O)ccn21,EC50,Influenza A virus [5],9.43 nM
same,CC50 at 48 h,[6],> 50000 nM
same,selectivity ratio,[7],> 5300
O=C1c2c(O)c(=O)ccn2N([C@@H]2c3ccc(F)cc3COc3ccccc32)[C@@H]2COCCN12,EC50,Influenza A virus [5],2.5 nM
same,CC50 at 48 h,[6],35200 nM
same,selectivity ratio,[7],14100
CCOC(=O)Cc1ccc2c(c1)[C@H](N1[C@@H]3COCCN3C(=O)c3c(O)c(=O)ccn31)c1ccccc1CO2,EC50,Influenza A virus [5],36 nM
same,CC50 at 48 h,[6],> 50000 nM
same,selectivity ratio,[7],> 1390
O=C1c2c(O)c(=O)ccn2N([C@H]2c3ccccc3COc3c2ccc(F)c3F)[C@@H]2COCCN12,EC50,Influenza A virus [5],5.16 nM
same,CC50 at 48 h,[6],33300 nM
same,selectivity ratio,[7],6460
N#Cc1ccc2c(c1)COc1ccccc1[C@@H]2N1[C@@H]2COCCN2C(=O)c2c(O)c(=O)ccn21,EC50,Influenza A virus [5],8.79 nM
same,CC50 at 48 h,[6],> 50000 nM
same,selectivity ratio,[7],> 5690
O=C1c2c(O)c(=O)ccn2N([C@H]2c3ccccc3COc3cc(F)ccc32)[C@@H]2COCCN12,EC50,Influenza A virus [5],1.17 nM
same,CC50 at 48 h,[6],> 50000 nM
same,selectivity ratio,[7],> 42700
O=C1c2c(O)c(=O)ccn2N([C@@H]2c3ccccc3COc3cc(C(F)(F)F)ccc32)[C@@H]2COCCN12,EC50,Influenza A virus [5],17.2 nM
same,CC50 at 48 h,[6],> 50000 nM
same,selectivity ratio,[7],> 2910
O=C1c2c(O)c(=O)ccn2N([C@@H]2c3ccccc3OCc3c(F)cccc32)[C@@H]2COCCN12,EC50,Influenza A virus [5],8.41 nM
same,CC50 at 48 h,[6],> 50000 nM
same,selectivity ratio,[7],> 5940
O=C1c2c(O)c(=O)ccn2N([C@H]2c3ccccc3OCc3c(F)cccc32)[C@@H]2COCCN12,EC50,Influenza A virus [5],7.82 nM
same,CC50 at 48 h,[6],> 50000 nM
same,selectivity ratio,[7],> 6390
O=C1c2c(O)c(=O)ccn2N([C@@H]2c3ccccc3OCc3c2ccc(F)c3F)[C@@H]2COCCN12,EC50,Influenza A virus [5],1.68 nM
same,CC50 at 48 h,[6],19100 nM
same,selectivity ratio,[7],11400
O=C1c2c(O)c(=O)ccn2N([C@@H]2c3ccccc3SCc3c2ccc(F)c3F)[C@@H]2COCCN12 [BALOXAVIR],half-life at 1 µM,[1],3.03 h
same,CC50 at 48 h,[6],9300 nM
same,EC50,Influenza A virus [9],1.85 nM
same,EC50,Influenza B virus,2.02 nM
same,half-life at 1 µM,[2],2.68 h
same,CLint,[3],7.6 µL/min/mg
same,CLint,[4],8.6 µL/min/mg
same,half-life,[11],3.78 h
same,half-life,[12],2.8 h
same,Tmax,[13],1.67 h
same,Tmax,[14],4.8 min
same,Cmax,[15],523 ng/mL
same,Cmax,[16],205 ng/mL
same,MRT inf,[19],4.63 h
same,MRT inf,[20],3 h
same,inhibition,HEK293T [25],76.9%
O=C1c2c(O)c(=O)ccn2N([C@@H]2c3ccccc3COc3c2ccc(F)c3F)[C@@H]2COCCN12,EC50,Influenza A virus [5],1.64 nM
same,CC50 at 48 h,[6],22100 nM
same,selectivity ratio,[7],13500
CCOC(=O)Cc1ccc2c(c1)[C@@H](N1[C@@H]3COCCN3C(=O)c3c(O)c(=O)ccn31)c1ccccc1CO2,EC50,Influenza A virus [5],705 nM
same,CC50 at 48 h,[6],> 50000 nM
same,selectivity ratio,[7],> 71
